A short description of data set [1]: Osmotic pressure of saturated verapamil hydrochloride solution / of the blend of verapamil plus osmotic solute (vapor pressure osmometry). In kind it is physicochemical. The note with it: for π, osmotic pressure of the blend of Sd plus So: verapamil plus the osmotic solute named in the line. An excerpt: (§1) The results of the formulation are given in the accompanying table.

Data set [2] is described as follows: Solubility of verapamil and of osmotic solutes in a common aqueous fluid.
Text: as §1

Data set [3] is described as follows: Cumulative amount of verapamil released over time from formulations with osmotic solutes. It is filed as physicochemical. The note with it: verapamil formulated with osmotic solute at equilibrium ratio.
Text: as §1

The mark [4] stands for this setting: in common aqueous fluid with verapamil.

Structures can show the parent of a compound that is named as a salt.

For the compound `O=C(O)CCCCC(=O)O` [Adipic Acid], in data set [1], the “π, osmotic pressure of the blend of Sd plus So” value is 13.9 atm.
On the same count and under the same terms, with `O=C1O[C@H]([C@@H](O)CO)C(O)=C1O` [Ascorbic Acid] the figure was 76.8 atm.
Take `O=C[C@H](O)[C@@H](O)[C@@H](O)[C@H](O)CO` [D-Galactose]: in data set [2] (setting [4]), the “So, solubility of the osmotic solute” value is 457 mg/mL. In data set [1], the “π, osmotic pressure of the blend of Sd plus So” value is given as 87.1 atm.
For the compound `O=C(O)CCC(=O)O` [Disodium Succinate], the “π, osmotic pressure of the blend of Sd plus So” value in data set [1] came out at 36.6 atm.
As to `O=C(O)/C=C/C(=O)O` [Fumaric Acid], the “So, solubility of the osmotic solute” value in data set [2] (common aqueous fluid) amounted to 77 mg/mL. Moreover, the “π, osmotic pressure of the blend of Sd plus So” value in data set [1] came out at 21.4 atm.
As for `COc1ccccc1OCC(O)CO` (stereo not drawn) [Guaifenesin, reference compound], the “So, solubility of the osmotic solute” value in data set [2] (common aqueous fluid) turned out to be 81 mg/mL.
For the compound `O[C@H]1[C@H](O)[C@@H](O)[C@H](O)[C@@H](O)[C@H]1O` [Inositol], the “π, osmotic pressure of the blend of Sd plus So” value in data set [1] amounted to 20.6 atm. Also, the “cumulative amount of verapamil released over time” value in data set [3] is given as “insufficient cumulative amount of verapamil released over time”.
Regarding `O=C[C@H](O)[C@@H](O)[C@@H](O)CO` [L-Arabinose], the “So, solubility of the osmotic solute” value in data set [2] (common aqueous fluid) stood at 473 mg/mL. In addition, in data set [1], the “π, osmotic pressure of the blend of Sd plus So” value is on record as 110.3 atm.
`O=C(O)CC(O)C(=O)O` (stereo not drawn) [Malic Acid]: the “So, solubility of the osmotic solute” value in data set [2] (setting [4]) stood at 436 mg/mL.
As to `OC[C@@H](O)[C@@H](O)[C@H](O)[C@H](O)CO` [Mannitol], the “So, solubility of the osmotic solute” value in data set [2] (common aqueous fluid) turned out to be 219 mg/mL. For the same compound, the “π, osmotic pressure of the blend of Sd plus So” value in data set [1] turned out to be 42.8 atm.
Regarding `O=C(O)C(O)C(O)C(=O)O` (stereo not drawn) [Sodium Tartrate], in data set [1], the “π, osmotic pressure of the blend of Sd plus So” value came to 100.0 atm.
Still for that read-out and setting: to `O=C(O)CCC(=O)O` [Succinic Acid] belongs 22.9 atm.
With `COc1ccc(CCN(C)CCCC(C#N)(c2ccc(OC)c(OC)c2)C(C)C)cc1OC` (stereo not drawn) [Verapamil-HCl, verapamil hydrochloride, reference compound], the “osmotic pressure of a saturated aqueous solution” value in data set [1] (at 37° C., vapor pressure osmometry) came to 11 atm. Besides, the “π, osmotic pressure” value is 10.9 atm in data set [1] (verapamil-HCl alone), 13.0 atm in data set [1] (verapamil-HCl in AGF) and 13.3 atm in data set [1] (verapamil-HCl in AIF).
In the case of `COc1ccc(CCN(C)CCCC(C#N)(c2ccc(OC)c(OC)c2)C(C)C)cc1OC` (stereo not drawn) [verapamil, reference compound], in data set [1] (in the presence of mannitol), the “osmotic pressure of verapamil in the presence of mannitol” value is listed as “raised in the presence of mannitol”.
For the compound “Insulin: Insulin, listed as osmotic solute in the table”, the “So, solubility of the osmotic solute” value in data set [2] (setting [4]) was 50 mg/mL. Also, the “ST, total solubility of Sd and So” value in data set [2] (verapamil plus osmotic solute in a common aqueous fluid) was 197 mg/mL.

(Values after patent publication US4753802A (Alza Corporation, priority 1986, dated 1988).)
